Molecular target: T1, hROMK (hKir1.1) (Homo sapiens, UniProt P48048)
T1 construct: expressed in transfected cells
T1 sequence (P48048 1-391): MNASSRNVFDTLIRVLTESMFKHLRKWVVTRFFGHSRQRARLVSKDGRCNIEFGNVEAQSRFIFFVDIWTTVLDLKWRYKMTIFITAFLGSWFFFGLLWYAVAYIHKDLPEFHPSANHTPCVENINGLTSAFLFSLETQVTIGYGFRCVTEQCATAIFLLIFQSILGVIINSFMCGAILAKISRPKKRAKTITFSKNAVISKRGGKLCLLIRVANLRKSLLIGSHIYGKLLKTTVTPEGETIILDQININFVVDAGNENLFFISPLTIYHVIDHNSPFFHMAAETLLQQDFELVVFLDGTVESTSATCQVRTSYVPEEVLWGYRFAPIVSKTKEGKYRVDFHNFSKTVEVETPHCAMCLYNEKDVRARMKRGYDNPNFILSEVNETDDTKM
Test: Thallium Flux Assay
Type: cell-based
Settings: HEK293 cells stably expressing hROMK (hKir1.1)
Description: Cell Culture Conditions—HEK293 cells stably expressing hROMK (hKir1.1) were grown at 37° C. in a 10% CO2 humidified incubator in complete growth media: Dulbecco's Modified Eagle Medium supplemented with non-essential amino acids, Penicillin/Streptomycin/Glutamine, G418 and FBS. At >80% confluency, aspirate the media from the flask and rinse with 10 mL Calcium/Magnesium-free PBS. Add 5 mL of 1× trypsin (prepared in Ca/Mg Free PBS) to T-225 flask and return flask to 37° C./CO2 incubator for 2-3 minutes. To dislodge the cell, gently bang the side of the flask with your hand. Triturate the cells completely and then transfer the cells to 25 mL complete media. Centrifuge at 1,500 rpm for 6 min followed by resuspension in complete growth media and determine cell concentration. For typical re-seeding, 4E6 cells/T-225 flask will attain >80% confluency in 4 days. Under ideal growth conditions and appropriate tissue culture practices, this cell line is stable for 40-45 passages.
FluxOR Kit Components (Invitrogen F10017)
• FluxOR™ Reagent (Component A) • FluxOR™ Assay Buffer (Component B)—10× Concentrate • PowerLoad™ Concentrate (Component C)—100× Concentrate • Probenecid (Component D)—Lyophilized sample is kept at −20° C. Water soluble, 100× after solubilization in 1 mL water. Store at 4° C. • FluxOR™ Chloride-free Buffer (Component E)—5× Concentrate • Potassium sulfate (K2SO4) Concentrate (Component F)—125 mM in water. Store at 4° C. • Thallium sulfate (Tl2SO4) Concentrate (Component G)—50 mM in water. Store at 4° C. • DMSO (dimethyl sulfoxide, Component H)—1 mL (100%) Reagent Preparation: FluxOR Working Solutions • 1000× FluxOR™ Reagent: Reconstitute a vial of component A in 100 μl DMSO; Mix well; Store 10 μl aliquots at −20° C. • 1× FluxOR™ Assay Buffer: Dilute Component B 10-fold with water; Adjust pH to 7.4 with Hepes/NaOH; Filter and store at 4° C. • Probenecid/Assay Buffer: 100 mL of 1× FluxOR™ Assay Buffer; 1 mL of reconstituted component D; Store at 4° C. • Loading Buffer (per microplate): 10 μl 1000× FluxOR™ Reagent; 100 μl component C; 10 mL Probenecid/Assay Buffer • Compound Buffer (per microplate): 20 mL Probenecid/Assay Buffer; 0.3 mM ouabain (10 mM ouabain in water can be stored in amber bottle/aluminum foil at room temperature); Test compound • 1× FluxOR™ Chloride-Free Buffer: Prepare 1× working solution in water. Can be stored at room temperature • Stimulant Buffer (prepared at 5× final concentration in 1× FluxOR™Chloride-Free Buffer): 7.5 mM Thallium sulfate and 0.75 mM Potassium sulfate (to give a final assay concentration of 3 mM Thallium/0.3 mM Potassium). Store at 4° C. when not in use. If kept sterile, this solution is good for months.
Assay Protocol—The ROMK channel functional thallium flux assay is performed in 384 wells, using the FLIPR-Tetra instrument. HEK-hKir1.1 cells are seeded in Poly-D-Lysine microplates and kept in a 37° C.-10% CO2 incubator overnight. On the day of the experiment, the growth media is replaced with the FluxOR™ reagent loading buffer and incubated, protected from light, at ambient temperature (23-25° C.) for 90 min. The loading buffer is replaced with assay buffer± test compound followed by 30 min incubation at ambient temperature, where the Thallium/Potassium stimulant is added to the microplate.
• 1. Seed HEK-hKir1.1 cells (50 μl at 20,000 cells/well) in 384-well PDL coated Microplates • 2. Allow cells to adhere overnight in humidified 37° C./10% CO2 incubator • 3. Completely remove cell growth media from microplate and replace with 25 μl loading buffer • 4. Incubate Microplate at room temperature, protected form light, for 90 min • 5. Remove loading buffer and replace with 25 μl 1× Assay Buffer±test compound. • 6. Incubate microplate at room temperature, protected from light, for 30 min • 7. At FLIPR-Tetra 384: Add stimulant (Thallium/Potassium) solution to microplate and monitor fluorescence. Excitation=400 nm, Emission=460 & 580 nm. Collect data for ˜10 min. […]

Row | SMILES | IC50 [nM]
1 | Cc1c([C@@H](O)CN2CC[C@@H](NC(=O)c3ccc(C#N)cn3)[C@H](F)C2)ccc2c1COC2=O [Example 38, 5-Cyano-N-((trans)-3-fluoro-1-((R)-2-hydroxy-2-(4-methyl-1-oxo-1,3-dihydroisobenzofuran-5-yl)ethyl)piperidin-4-yl)picolinamide] | 1000
2 | Cc1c([C@@H](O)CN2CCC(C3(NC(=O)c4ccc(-n5cnnn5)nc4)CCC3)C2)ccc2c1COC2=O (single isomer, unassigned) [90 A] | 740
3 | Cc1c(CCN2CCC(NC(=O)c3ccc(-n4cnnn4)nc3)CC2)ccc2c1COC2=O [Example 3, N-(1-(2-(4-Methyl-1-oxo-1,3-dihydroisobenzofuran-5-yl)ethyl)piperidin-4-yl)-6-(1H-tetrazol-1-yl)nicotinamide] | 500
4 | Cc1c(CCN2CCC(N(C)C(=O)c3ccc4c(c3)COC4=O)CC2)ccc2c1COC2=O [Example 2, N-Methyl-N-(1-(2-(4-methyl-1-oxo-1,3-dihydroisobenzofuran-5-yl)ethyl)piperidin-4-yl)-1-oxo-1,3-dihydroisobenzofuran-5-carboxamide] | 600
5 | Cc1c([C@@H](O)CN2CCC(C)(CNC(=O)c3ccc(-n4cnnn4)cn3)C2)ccc2c1COC2=O (single isomer, unassigned) [69 A] | 880
6 | Cc1cc(C(=O)NC2CCN(C[C@@H](O)c3ccc4c(c3C)COC4=O)CC2)ncc1C#N [Example 23, (S)-5-cyano-N-(1-(2-hydroxy-2-(4-methyl-1-oxo-1,3-dihydroisobenzofuran-5-yl)ethyl)piperidin-4-yl)-4-methylpicolinamide] | 720
7 | Cc1nc(C(=O)N[C@H]2CCN(C[C@H](O)c3ccc4c(c3C)COC4=O)C[C@H]2F)ccc1C#N (single isomer, unassigned) [44 A] | 570
8 | CO[C@@H]1CN(C[C@H](O)c2ccc3c(c2C)COC3=O)CC[C@@H]1NC(=O)c1ccc(-n2cnnn2)nc1 (single isomer, unassigned) [54 A] | 760
9 | Cc1c([C@@H](O)CN2CCC(NC(=O)c3ccc(-n4cncn4)cc3)CC2)ccc2c1COC2=O [Example 74, (R)-N-(1-(2-Hydroxy-2-(4-methyl-1-oxo-1,3-dihydroisobenzofuran-5-yl)ethyl)piperidin-4-yl)-4-(1H-1,2,4-triazol-1-yl)benzamide] | 630
10 | Cc1c([C@@H](O)CN2CCCC(C(C)(C)NC(=O)c3ccc(-n4cnnn4)nc3)C2)ccc2c1COC2=O (stereo partly drawn) [Example 80, N-(2-(1-((R)-2-Hydroxy-2-(4-methyl-1-oxo-1,3-dihydroisobenzofuran-5-yl)ethyl)piperidin-3-yl)propan-2-yl)-6-(1H-tetrazol-1-yl)nicotinamide] | 970

These reach a lower IC50. Values come first.

Row | IC50 [nM] | SMILES
11 | 370 | Cc1cc(C(=O)NCC2CCN(C[C@H](O)c3ccc4c(c3C)COC4=O)C2)ncc1-n1cnnn1 (stereo partly drawn) [Example 85, N-((1-((R)-2-Hydroxy-2-(4-methyl-1-oxo-1,3-dihydroisobenzofuran-5-yl)ethyl)pyrrolidin-3-yl)methyl)-4-methyl-5-(1H-tetrazol-1-yl)picolinamide]
12 | 190 | Cc1c([C@@H](O)CN2CCC(NC(=O)c3ccc(-n4cnnn4)cn3)CC2)ccc2c1COC2=O [Example 53, (R)-N-(1-(2-Hydroxy-2-(4-methyl-1-oxo-1,3-dihydroisobenzofuran-5-yl)ethyl)piperidin-4-yl)-5-(1H-tetrazol-1-yl)picolinamide]
13 | 30 | Cc1c([C@@H](O)CN2CCC(NC(=O)c3ccc(C#N)cc3)CC2)ccc2c1COC2=O [Example 27, (R)-4-Cyano-N-(1-(2-hydroxy-2-(4-methyl-1-oxo-1,3-dihydroisobenzofuran-5-yl)ethyl)piperidin-4-yl)benzamide]
14 | 190 | Cc1c([C@@H](O)CN2CCC(C)(CNC(=O)c3ccc(-n4cnnn4)nc3)C2)ccc2c1COC2=O (stereo partly drawn) [Example 84, N-((1-((R)-2-Hydroxy-2-(4-methyl-1-oxo-1,3-dihydroisobenzofuran-5-yl)ethyl)-3-methylpyrrolidin-3-yl)methyl)-6-(1H-tetrazol-1-yl)nicotinamide]
15 | 100 | Cc1cc(C(=O)NC2CCN(C[C@H](O)c3ccc4c(c3C)COC4=O)CC2F)ncc1C#N (single isomer, unassigned) [48 B]
16 | 100 | Cc1c(CCN2CCC(NC(=O)c3ccc(-n4cccn4)cc3)CC2)ccc2c1COC2=O [Example 31, N-(1-(2-(4-Methyl-1-oxo-1,3-dihydroisobenzofuran-5-yl)ethyl)piperidin-4-yl)-4-(1H-pyrazol-1-yl)benzamide]
17 | 70 | CCOc1cc(C#N)ccc1C(=O)NC1CCN(C[C@H](O)c2ccc3c(c2C)COC3=O)CC1 [Example 26, (R)-4-Cyano-2-ethoxy-N-(1-(2-hydroxy-2-(4-methyl-1-oxo-1,3-dihydroisobenzofuran-5-yl)ethyl)piperidin-4-yl)benzamide]
18 | 450 | Cc1c([C@@H](O)CN2CCC(NC(=O)c3cccc(-n4cnnn4)c3)CC2)ccc2c1COC2=O [Example 36, (R)-N-(1-(2-Hydroxy-2-(4-methyl-1-oxo-1,3-dihydroisobenzofuran-5-yl)ethyl)piperidin-4-yl)-3-(1H-tetrazol-1-yl)benzamide]
19 | 320 | COc1cc(C(=O)NC2CCN(C[C@H](O)c3ccc4c(c3C)COC4=O)CC2)ccc1C#N [Example 57, (R)-4-Cyano-N-(1-(2-hydroxy-2-(4-methyl-1-oxo-1,3-dihydroisobenzofuran-5-yl)ethyl)piperidin-4-yl)-3-methoxybenzamide]
20 | 360 | Cc1c([C@@H](O)CN2CCCC(C)(CNC(=O)c3ccc(-n4cnnn4)cn3)C2)ccc2c1COC2=O (stereo partly drawn) [Example 67, N-((1-((R)-2-Hydroxy-2-(4-methyl-1-oxo-1,3-dihydroisobenzofuran-5-yl)ethyl)-3-methylpiperidin-3-yl)methyl)-5-(1H-tetrazol-1-yl)picolinamide]
21 | 70 | COc1cc(C(=O)NC2CCN(CC(O)c3ccc(F)c(C#N)c3C)CC2)ccc1C#N (centres unmarked) [Example 14, 4-Cyano-N-(1-(2-(3-cyano-4-fluoro-2-methylphenyl)-2-hydroxyethyl)piperidin-4-yl)-3-methoxybenzamide]
22 | 450 | Cc1c([C@@H](O)CN2CCC(NC(=O)c3ccc(C#N)cc3F)CC2)ccc2c1COC2=O [Example 45, (R)-4-Cyano-2-fluoro-N-(1-(2-hydroxy-2-(4-methyl-1-oxo-1,3-dihydroisobenzofuran-5-yl)ethyl)piperidin-4-yl)benzamide]
23 | 30 | Cc1c(CCN2CCC(NC(=O)c3ccc(C#N)c(F)c3)CC2)ccc2c1COC2=O [Example 11, 4-Cyano-3-fluoro-N-(1-(2-(4-methyl-1-oxo-1,3-dihydroisobenzofuran-5-yl)ethyl)piperidin-4-yl)benzamide]

From patent US9777002B2, “Inhibitors of the renal outer medullary potassium channel” (Merck Sharp & Dohme Corp., priority 2012, dated 2017)
